# Experimental data reported in ChEMBL document CHEMBL3507680, “University of Dundee, Gates Library screen for HepG2 cell viability”.
# Test: Human HepG2 cell viability assay in 384 well format
# Type: toxicity, cell-based
# Design: dose 125 nL, time 70.5 hour; concentration not given beside the values
# Settings: HepG2 cells, read-out: Inhibition
row,SMILES,cytotoxicity at 70.5 h
1,OCCN1CCC(CNCc2ccccc2OC(F)(F)F)CC1,-7.57%
2,O=C(Nc1nncs1)NC1CCOc2ccccc21 (configuration not stated),3.46%
3,O=C(NCCNC(=O)C1CCCCC1)NCCn1cccc1,-4.89%
4,N#Cc1ccc(N2CCC3(CCCN(c4ccccn4)C3)C2)nc1 (configuration not stated),-1.5%
5,CC(C)c1nccn1-c1cccc(C2CCCN2S(=O)(=O)N(C)C)n1 (configuration not stated),0.791%
6,Cn1nnc(NCc2ccc(OCc3ccc(Cl)cc3)cc2)n1,-4.01%
7,CCSc1cc(C(=O)NCCNC(=O)N(C)C)ccn1,-76.6%
8,COCC(=O)N1CCN(CCn2cccn2)c2nc(C)ccc2C1,0.00132%
9,Cc1ccc(C)c(CSc2nnc(C(N)Cc3ccccc3)o2)c1 (configuration not stated),-14.6%
10,Cc1oc(C(=O)O)cc1S(=O)(=O)Nc1ccc(Cl)c(F)c1,-6.62%
11,O=C(c1cc(CC2(NC3CCCCC3)COC2)no1)N1CCCCC1,11.7%
12,CCC1CN(C(=O)c2cccc(O)c2)CCC(=O)N1Cc1ccccc1 (configuration not stated),0.303%
13,COc1cncc(-n2nc(C)c(CC(C)=O)c2C)c1,0.266%
14,c1cnc(N2CCC3(COCCN(CC4CC4)C3)C2)nc1 (configuration not stated),-21.1%
15,CCS(=O)(=O)N1CCC2(CCN(Cc3ccc(C)o3)C2)C1 (configuration not stated),13%
16,Cc1ccc(CN2CCC3(CCCC(=O)N3)CC2)s1,-3.64%
17,Cc1cc(NC(=O)C(c2cccc(F)c2)N2CCOCC2)sn1 (configuration not stated),8.13%
18,CCC(C)N1CCC(Oc2ccc(C(=O)NCCN(C)C)cc2Cl)CC1 (configuration not stated),-5.39%
19,Fc1ccc(-c2cnc(CNC3CCc4ncnn4C3)o2)cc1 (configuration not stated),-8.23%

row,SMILES,cytotoxicity at 70.5 h
1,Cc1cc(C)n(CC(C)CNC(=O)N(C)Cc2ccco2)n1 (configuration not stated),-10.5%
2,CCCc1cc(C(=O)N(C)Cc2cccc3cnccc23)n(C)n1,-2.24%
3,CC(C)(C)CN1CCC[C@H]1c1nc(-c2cncnc2N)no1,-0.753%
4,CC(O)(CNC(=O)c1c(F)cccc1Cl)C1CC1 (configuration not stated),-14.4%
5,OCCOc1cc(F)ccc1NCc1nc(-c2cccs2)no1,-10.9%
6,Cc1nc(CCNC(=O)NC(C)c2ccc3c(c2)OCCO3)cs1 (configuration not stated),-3.72%
7,CNc1cccc(CC2COCCN(C(=O)c3cccnc3)C2)n1 (configuration not stated),-3.83%
8,c1coc(CN2C[C@H](OCC3CCOCC3)[C@H]3COC[C@H]32)c1,-15.3%
9,CCc1[nH]c2c(CNc3cnccn3)cc(F)cc2c1C,-2.66%
10,CC(C)C(C)N(Cc1ccccn1)Cc1ccco1 (configuration not stated),-22.8%
11,CC(COc1ccccc1)NS(C)(=O)=O (configuration not stated),-1.8%
12,CC[C@H](C)[C@H](NC(=O)Cn1ccc2ccc(F)cc21)C(=O)OC,-1.27%
13,O=C(c1cccnc1)N1CCOC2(COCCN(c3cncnc3)C2)C1 (configuration not stated),-9.01%
14,CC(C)NC(=O)C[C@H]1[C@H]2CN(C(=O)Cc3ccccn3)C[C@@H]12,1.47%
15,Cc1cc(C)n(CC2CN(Cc3nc(C4CC4)no3)CCO2)n1 (configuration not stated),-4.87%
16,CN(CCc1ccccn1)Cc1nccn1Cc1ccccc1,11.8%
17,COc1ccc(S(=O)(=O)NCC(c2cccn2C)N(C)C)cc1F (configuration not stated),-8.8%
18,COc1ccc2cc(C(=O)N3CCCCC3Cn3cccn3)[nH]c2c1 (configuration not stated),-3.69%
19,CC(C(=O)N1CCOCC1)S(=O)(=O)Cc1nc(C(C)(C)C)no1 (configuration not stated),-9.65%

row,SMILES,cytotoxicity at 70.5 h
1,O=C(NCCc1c[nH]cn1)c1ccc(S(=O)(=O)NC2CCOC2)cc1 (configuration not stated),-0.712%
2,COc1cccc(CNc2nc(N3CCOCC3)ns2)c1OC,15.5%
3,COCc1nc2cc(NCc3ncc[nH]3)ccc2o1,-3.38%
4,Cc1ccc(CN2CCN(c3ncnc4[nH]cnc34)CC2CCO)cc1 (configuration not stated),4.25%
5,COC(=O)c1cccn1C1CCN(Cc2ccccc2)CC1,15.7%
6,COc1cc(C(=O)Nc2nc(C)no2)ccc1OC(F)F,2.82%
7,Cc1nnc([C@@H]2C[C@H]3CN(C(=O)c4sccc4C)C[C@H]3O2)[nH]1,-8.24%
8,CC(c1ccc(C(F)(F)F)cc1)N1CCN(CCS(C)(=O)=O)CC1 (configuration not stated),-1.96%
9,COc1ccc(N2Cc3nc(N4CCCC4)ncc3C2=O)cc1Cl,1.18%
10,CN1N=C(C(=O)NCc2ccc3c(c2)CCCN3C)CCC1=O,5.34%
11,CCN1CC2(CCNCC2)COc2ccccc2S1(=O)=O,-15.6%
12,CC(CNCc1ccc2c(c1)n(C)c(=O)n2C)Oc1ccccn1 (configuration not stated),-24.7%
13,O=C(COC1CCCC1)NCc1ccc(O)c(F)c1,-3.82%
14,Cc1cc(C(=O)N2CCC(c3nnc(Cn4ccnc4)n3C)CC2)cs1,-9.51%
15,CNC(=O)c1cc2c(nc1NC(C)C)CCNCC2,6.54%
16,Cc1ccccc1[C@@H]1CN(CCCS(=O)(=O)N(C)C)C[C@H]1C(=O)O,7.05%
17,Cc1cc(C(=O)NC2CCN(c3ncccc3C#N)CC2)on1,-6.25%
18,O=C(c1ccc2nncn2c1)N1CCCC(n2ccnc2)C1 (configuration not stated),-14.2%
19,Cc1cc(N2CCC(NCCOc3ccccc3)CC2)nc(C)n1,3.15%
